Measurements as given in ChEMBL document CHEMBL1201862, “PubChem BioAssay data set” (2004).
Values joined by “and” are separate entries in the source; they are usually repeats but may differ in a detail not shown here. Equal entries are not always repeated.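 Method: 48-hour compound exposure of cells in 96-well plates, five concentrations, linear interpolation of endpoints. GI50 marks 50% less growth.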 Active and inactive are the calls of the source. Cut-off read from the data, not from the text of the source: active = GI50 up to about 1.1 µM and inactive = higher.

Assays:
Assay in all cases: NCI anticancer screen, dose series, 48 h
MDA-MB-435 = test system: MDA-MB-435
SF-295 = test system: SF-295
SR = test system: SR
LOX IMVI = test system: LOX IMVI
RPMI-8226 = test system: RPMI-8226
HT-29 = test system: HT-29
SK-MEL-5 = test system: SK-MEL-5
HL-60 = test system: HL-60
MCF7 = test system: MCF7
T47D = test system: T47D
SNB-75 = test system: SNB-75
OVCAR-4 = test system: OVCAR-4
UO-31 = test system: UO-31
MDA-N = test system: MDA-N
TK-10 = test system: TK-10
OVCAR-8 = test system: OVCAR-8
MOLT-4 = test system: MOLT-4
HCT-15 = test system: HCT-15
A549 = test system: A549
SK-MEL-2 = test system: SK-MEL-2

Row | Structure (SMILES) | GI50 (MDA-MB-435) | GI50 (SF-295) | GI50 (SR) | GI50 (LOX IMVI) | GI50 (RPMI-8226) | GI50 (HT-29) | GI50 (SK-MEL-5) | GI50 (HL-60) | GI50 (MCF7) | GI50 (T47D) | GI50 (SNB-75) | GI50 (OVCAR-4) | GI50 (UO-31) | GI50 (MDA-N) | GI50 (TK-10) | GI50 (OVCAR-8) | GI50 (MOLT-4) | GI50 (HCT-15) | GI50 (A549) | GI50 (SK-MEL-2)
1 | Cc1nc(C)c(N2CCNCC2)c(O)n1 | > 100 µM (inactive) | > 100 µM (inactive) | > 100 µM (inactive) | > 100 µM (inactive) | > 100 µM (inactive) | > 100 µM (inactive) | > 100 µM (inactive) | > 100 µM (inactive) | > 100 µM (inactive) | > 100 µM (inactive) | > 100 µM (inactive) | > 100 µM (inactive) | > 100 µM (inactive) | > 100 µM (inactive) | > 100 µM (inactive) | > 100 µM (inactive) | > 100 µM (inactive) | > 100 µM | > 100 µM (inactive) | –
2 | CC(=O)OC1OC(C2c3cccc(O)c3C(=O)c3c(O)cc(CO)cc32)C(O)C(O)C1O (stereo not drawn) | 3.72 µM (inactive) and 3.19 µM (inactive) | 2.72 µM (inactive) and 3.62 µM (inactive) | 2.67 µM (inactive) and 1.93 µM (inactive) | 2.87 µM (inactive) and 3.03 µM (inactive) | – | 3.74 µM (inactive) and 3.92 µM (inactive) | 1.53 µM (inactive) and 1.68 µM (inactive) | 2.32 µM (inactive) and 2 µM (inactive) | 5.04 µM (inactive) and 4.75 µM (inactive) | 1.41 µM (inactive) and 1.73 µM (inactive) | 3.27 µM (inactive) and 5.27 µM (inactive) | 5.38 µM (inactive) and 6.61 µM (inactive) | 6.46 µM (inactive) and 7.96 µM (inactive) | 3.74 µM (inactive) and 3.13 µM (inactive) | 5.69 µM (inactive) and 5.81 µM (inactive) | 4.31 µM (inactive) and 3.61 µM (inactive) | 4.13 µM (inactive) and 4.58 µM (inactive) | 3.37 µM and 3.51 µM | 2.8 µM (inactive) and 5.56 µM (inactive) | 2.32 µM (inactive) and 2.74 µM (inactive)
3 | Cc1nc(Cl)c(Cl)c(Cl)n1 | 0.531 µM (active) | 1.86 µM (inactive) | < 0.01 µM (active) | 0.0596 µM (active) | < 0.0398 µM (active) | 0.104 µM (active) | 0.705 µM (active) | 0.0269 µM (active) | 0.575 µM (active) | 0.596 µM (active) | 1.18 µM (inactive) | 0.0331 µM (active) | – | 1.6 µM (inactive) | 1.08 µM (active) | 0.755 µM (active) | < 0.0142 µM (active) | 0.558 µM | 1.49 µM (inactive) | 0.51 µM (active)
4 | Cc1ccnc2[nH]c(-c3ccccc3)cc(=O)c12 | 0.1 µM (active) | 0.00309 µM (active) | 0.00103 µM (active) | 0.0149 µM (active) | 0.00731 µM (active) | 0.00361 µM (active) | 0.00387 µM (active) | 0.00188 µM (active) | 0.0398 µM (active) | 42.5 µM (inactive) | 0.00621 µM (active) | 68.7 µM (inactive) | 0.0348 µM (active) | 0.0011 µM (active) | 0.106 µM (active) | 0.027 µM (active) | 0.0132 µM (active) | 0.00485 µM | 0.0153 µM (active) | –
5 | Cc1nn(C(=O)c2ccc(Cl)cc2)c2c1C(c1ccc(Cl)cc1)SC(=N)N2 (stereo not drawn) | > 10 µM (inactive) | > 10 µM (inactive) | > 10 µM (inactive) | > 10 µM (inactive) | > 10 µM (inactive) | > 10 µM (inactive) | > 10 µM (inactive) | > 10 µM (inactive) | > 10 µM (inactive) | > 10 µM (inactive) | > 10 µM (inactive) | > 10 µM (inactive) | – | > 10 µM (inactive) | > 10 µM (inactive) | > 10 µM (inactive) | > 10 µM (inactive) | > 10 µM | > 10 µM (inactive) | > 10 µM (inactive)
6 | C=C(CCC/C(C)=C/C=C/[C@H](C)CCCc1ccoc1)C[C@@H]1OC(=O)[C@H](C)[C@@H]1O | 9.06 µM (inactive) | 8.83 µM (inactive) | 11.8 µM (inactive) | 13.6 µM (inactive) | 10.8 µM (inactive) | 15.1 µM (inactive) | 8.04 µM (inactive) | – | 10.8 µM (inactive) | 6.97 µM (inactive) | 8.75 µM (inactive) | 4.73 µM (inactive) | 7.69 µM (inactive) | 9.98 µM (inactive) | 10.6 µM (inactive) | 11.9 µM (inactive) | 15.3 µM (inactive) | 11.4 µM | 5.7 µM (inactive) | 9.14 µM (inactive)
7 | Cc1cc(C)nc(NS(=O)(=O)c2ccc(NC(=O)c3cccc4c(NNc5ccc(S(=O)(=O)N=C(N)N)cc5)c5ccccc5nc34)cc2)n1 | > 50 µM (inactive) | > 50 µM (inactive) | > 50 µM (inactive) | > 50 µM (inactive) | > 50 µM (inactive) | > 50 µM (inactive) | > 50 µM (inactive) | > 50 µM (inactive) | > 50 µM (inactive) | > 50 µM (inactive) | 41.9 µM (inactive) | > 50 µM (inactive) | 48.1 µM (inactive) | > 50 µM (inactive) | > 50 µM (inactive) | > 50 µM (inactive) | > 50 µM (inactive) | > 50 µM | > 50 µM (inactive) | –
